Measured values taken from patent publication EP0539204B1 (priority 1991, dated 1993).
Values after ≈ are worked out from the molar mass of the structure shown.

Assays:
[1] = test system: influenza A/Singapore/1/57 (H2N2); assay: microbe, parasite or virus in culture; type: cell-based; settings: for I50 Plaque Assay Flu A: reduction of viral plaque formation in MDCK cells, 3 days at 37°C; for IC50: Influenza A virus, H2N2, MDCK, 72 h, read-out: I50 Plaque Assay Flu A
[2] = biological target: N2 influenza neuraminidase (Influenza A virus, UniProt Q91MA2); assay: biochemical; type: biochemical, influenza virus (virion X31); settings: for NA1: pH 6.5
N2 influenza neuraminidase, sequence (Q91MA2 whole entry, looked up): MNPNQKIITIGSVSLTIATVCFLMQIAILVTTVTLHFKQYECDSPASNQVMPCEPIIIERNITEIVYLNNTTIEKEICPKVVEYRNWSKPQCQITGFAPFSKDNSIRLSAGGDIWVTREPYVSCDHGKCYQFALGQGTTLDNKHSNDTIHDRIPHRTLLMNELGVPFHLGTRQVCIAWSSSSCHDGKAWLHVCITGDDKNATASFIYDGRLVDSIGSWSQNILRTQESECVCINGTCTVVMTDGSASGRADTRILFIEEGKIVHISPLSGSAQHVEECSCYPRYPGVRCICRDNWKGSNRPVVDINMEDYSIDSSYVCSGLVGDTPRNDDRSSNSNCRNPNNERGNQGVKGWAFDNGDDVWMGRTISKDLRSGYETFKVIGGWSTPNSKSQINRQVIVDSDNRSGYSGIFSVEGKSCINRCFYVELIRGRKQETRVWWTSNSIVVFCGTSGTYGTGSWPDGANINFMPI

[3] = test system: influenza B/Victoria/102/85; assay: microbe, parasite or virus in culture; type: cell-based; settings: for IC50: Influenza B virus, MDCK, 72 h, read-out: I50 Plaque Assay Flu B

Compound	I50 Plaque Assay Flu A [1] [µg/mL]	NA1 [2] [µg/mL]	I50 Plaque Assay Flu B [3] [µg/mL]	IC50 [1] [µg/mL]	IC50 [2] [µM]	IC50 [3] [µg/mL]
5-(Acetylamino)-4-[[amino(aminoimino)methyl]amino]-2,6-anhydro-3,4,5-trideoxy-D-glycero-D-galacto-non-2-enonic acid [Example 1]	2.9	1.3	3.0			
5-(Acetylamino)-4-[[amino(hydroxyimino)methyl]amino]-2,6-anhydro-3,4,5-trideoxy-D-glycero-D-galacto-non-2-enonic acid [Example 2]	0.1	0.6	<0.1			
CNC(=N)N[C@H]1C=C(C(=O)O)O[C@@H]([C@H](O)[C@H](O)CO)[C@@H]1NC(C)=O [Example 3, 5-(Acetylamino)-4-[[amino(methylimino)methyl]amino]-2,6-anhydro-3,4,5-trideoxy-D-glycero-D-galacto-non-2-enonic acid]				3 (≈ 8.66 µM)	12.1	
CC(=O)N[C@H]1[C@H]([C@H](O)[C@H](O)CO)OC(C(=O)O)=C[C@@H]1NC(=N)N[N+](=O)[O-] [Example 4, 5-(Acetylamino)-4-[[amino(nitroimino)methyl]amino]-2,6-anhydro-3,4,5-trideoxy-D-glycero-D-galacto-non-2-enonic acid]				30 (≈ 79.5 µM)	2.65	24 (≈ 63.6 µM)
CCOC(=O)NC(=N)N[C@H]1C=C(C(=O)O)O[C@@H]([C@H](O)[C@H](O)CO)[C@@H]1NC(C)=O [Example 5, 5-(Acetylamino)-4-[[amino(ethoxycarbonylimino)methyl]amino]-2,6-anhydro-3,4,5-trideoxy-D-glycero-D-galacto-non-2-enonic acid]				1.7 (≈ 4.2 µM)	17.1	0.6 (≈ 1.48 µM)
